Experimental data published in paper PMC9288506, “Compounds activating VCP D1 ATPase enhance both autophagic and proteasomal neurotoxic protein clearance” (Nature Communications, 2022).

Columns and labels:
Assay in all cases: biochemical
Parameters in all cases: Thermo Fisher in vitro kinase panel, per cent inhibition of kinase activity at 10 uM
ALK = ALK (Homo sapiens, UniProt Q9UM73)
Protocol: (§1) Kinase profiling of SMER28 and analogs SMER28 and analogs were tested at 10 µM in a panel of 123 kinases at ThermoFisher Scientific. Follow-up of selected kinases for SMER28 and analogs was also performed at ThermoFisher Scientific. Data are shown in Supplementary Data 2 and 3. […] An inhibition of PIK3C could induce autophagy, mediated by signaling through the AKT/mTOR axis[45].

AMPK A2/B1/G1 = target: T1, AMPK A2/B1/G1 (Homo sapiens, UniProt P54646)
T1 construct: gene PRKAA2
Protocol: as §1

AURKB (Aurora B) = AURKB (Aurora B) (Homo sapiens, UniProt Q96GD4)
Sequence of AURKB (Aurora B) (Q96GD4 whole entry): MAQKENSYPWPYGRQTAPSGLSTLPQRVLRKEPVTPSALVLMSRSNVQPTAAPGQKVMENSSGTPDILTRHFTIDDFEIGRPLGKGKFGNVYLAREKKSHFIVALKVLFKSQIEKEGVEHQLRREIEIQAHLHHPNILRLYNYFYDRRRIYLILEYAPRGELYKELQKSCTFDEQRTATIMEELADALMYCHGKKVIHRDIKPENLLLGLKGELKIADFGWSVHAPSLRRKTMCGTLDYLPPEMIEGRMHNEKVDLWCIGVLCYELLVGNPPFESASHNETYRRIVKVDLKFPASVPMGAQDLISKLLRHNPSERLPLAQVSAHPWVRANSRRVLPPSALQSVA
Protocol: as §1

BMX = BMX (Homo sapiens, UniProt P51813)
Protocol: as §1

CDK7/cyclin H/MNAT1 = CDK7/cyclin H/MNAT1 (Homo sapiens, UniProt P50613)
Protocol: as §1

CSF1R (FMS) = CSF1R (FMS) (Homo sapiens, UniProt P07333)
Protocol: as §1

DMPK = DMPK (Homo sapiens, UniProt Q09013)
Protocol: as §1

EEF2K = EEF2K (Homo sapiens, UniProt O00418)
Protocol: as §1

EPHB4 = EPHB4 (Homo sapiens, UniProt P54760)
Protocol: as §1

FGFR2 = FGFR2 (Homo sapiens, UniProt P21802)
Protocol: as §1

FLT3 = FLT3 (Homo sapiens, UniProt P36888)
Protocol: as §1

JAK1 = JAK1 (Homo sapiens, UniProt P23458)
Protocol: as §1

KDR (VEGFR2) = KDR (VEGFR2) (Homo sapiens, UniProt P35968)
Protocol: as §1

MAP2K1 (MEK1) = MAP2K1 (MEK1) (Homo sapiens, UniProt Q02750)
Protocol: as §1

MET (cMet) = MET (cMet) (Homo sapiens, UniProt P08581)
Sequence of MET (cMet) (P08581 whole entry): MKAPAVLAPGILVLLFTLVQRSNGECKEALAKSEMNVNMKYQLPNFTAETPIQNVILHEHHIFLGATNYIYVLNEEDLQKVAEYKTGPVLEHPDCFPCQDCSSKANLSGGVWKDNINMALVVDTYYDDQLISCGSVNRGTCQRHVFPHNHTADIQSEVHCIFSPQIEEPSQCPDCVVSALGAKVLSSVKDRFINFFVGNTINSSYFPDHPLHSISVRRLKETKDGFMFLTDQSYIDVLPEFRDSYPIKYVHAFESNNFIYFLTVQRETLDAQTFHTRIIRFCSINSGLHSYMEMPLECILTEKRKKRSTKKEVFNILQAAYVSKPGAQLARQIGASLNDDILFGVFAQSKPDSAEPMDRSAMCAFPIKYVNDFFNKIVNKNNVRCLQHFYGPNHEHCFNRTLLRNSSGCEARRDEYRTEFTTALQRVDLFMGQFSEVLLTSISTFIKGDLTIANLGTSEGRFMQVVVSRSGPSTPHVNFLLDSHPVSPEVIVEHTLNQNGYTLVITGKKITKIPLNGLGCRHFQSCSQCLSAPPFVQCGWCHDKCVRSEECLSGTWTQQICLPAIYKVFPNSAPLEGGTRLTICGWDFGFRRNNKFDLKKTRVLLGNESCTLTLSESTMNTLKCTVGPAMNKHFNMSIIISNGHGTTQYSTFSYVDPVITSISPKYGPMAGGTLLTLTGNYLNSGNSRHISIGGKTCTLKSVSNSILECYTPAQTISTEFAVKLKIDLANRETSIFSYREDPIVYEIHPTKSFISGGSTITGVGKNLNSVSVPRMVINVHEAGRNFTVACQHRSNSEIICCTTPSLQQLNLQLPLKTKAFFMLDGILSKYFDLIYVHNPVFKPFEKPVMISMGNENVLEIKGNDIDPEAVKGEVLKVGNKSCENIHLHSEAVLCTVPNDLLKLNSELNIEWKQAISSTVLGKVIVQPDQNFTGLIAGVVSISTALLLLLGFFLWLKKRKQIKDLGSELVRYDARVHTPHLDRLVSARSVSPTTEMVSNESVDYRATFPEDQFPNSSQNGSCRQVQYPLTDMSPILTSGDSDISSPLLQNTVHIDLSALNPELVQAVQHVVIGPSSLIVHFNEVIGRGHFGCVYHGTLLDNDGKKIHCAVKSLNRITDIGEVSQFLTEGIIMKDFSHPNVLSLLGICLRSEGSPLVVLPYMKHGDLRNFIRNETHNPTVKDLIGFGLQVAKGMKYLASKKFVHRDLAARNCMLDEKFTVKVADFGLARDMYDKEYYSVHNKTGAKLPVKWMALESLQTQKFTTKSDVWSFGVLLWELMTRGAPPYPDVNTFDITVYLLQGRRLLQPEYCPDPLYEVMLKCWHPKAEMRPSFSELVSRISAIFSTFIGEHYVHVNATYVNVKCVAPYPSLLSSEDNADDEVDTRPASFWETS
Protocol: as §1

PAK4 = PAK4 (Homo sapiens, UniProt O96013)
Protocol: as §1

[1] = target: PIK3CD/PIK3R1 (p110 delta/p85 alpha) (Homo sapiens, UniProt O00329)
Protocol: as §1

PIK3CG (p110 gamma) = PIK3CG (p110 gamma) (Homo sapiens, UniProt P48736)
Sequence of PIK3CG (p110 gamma) (P48736 whole entry): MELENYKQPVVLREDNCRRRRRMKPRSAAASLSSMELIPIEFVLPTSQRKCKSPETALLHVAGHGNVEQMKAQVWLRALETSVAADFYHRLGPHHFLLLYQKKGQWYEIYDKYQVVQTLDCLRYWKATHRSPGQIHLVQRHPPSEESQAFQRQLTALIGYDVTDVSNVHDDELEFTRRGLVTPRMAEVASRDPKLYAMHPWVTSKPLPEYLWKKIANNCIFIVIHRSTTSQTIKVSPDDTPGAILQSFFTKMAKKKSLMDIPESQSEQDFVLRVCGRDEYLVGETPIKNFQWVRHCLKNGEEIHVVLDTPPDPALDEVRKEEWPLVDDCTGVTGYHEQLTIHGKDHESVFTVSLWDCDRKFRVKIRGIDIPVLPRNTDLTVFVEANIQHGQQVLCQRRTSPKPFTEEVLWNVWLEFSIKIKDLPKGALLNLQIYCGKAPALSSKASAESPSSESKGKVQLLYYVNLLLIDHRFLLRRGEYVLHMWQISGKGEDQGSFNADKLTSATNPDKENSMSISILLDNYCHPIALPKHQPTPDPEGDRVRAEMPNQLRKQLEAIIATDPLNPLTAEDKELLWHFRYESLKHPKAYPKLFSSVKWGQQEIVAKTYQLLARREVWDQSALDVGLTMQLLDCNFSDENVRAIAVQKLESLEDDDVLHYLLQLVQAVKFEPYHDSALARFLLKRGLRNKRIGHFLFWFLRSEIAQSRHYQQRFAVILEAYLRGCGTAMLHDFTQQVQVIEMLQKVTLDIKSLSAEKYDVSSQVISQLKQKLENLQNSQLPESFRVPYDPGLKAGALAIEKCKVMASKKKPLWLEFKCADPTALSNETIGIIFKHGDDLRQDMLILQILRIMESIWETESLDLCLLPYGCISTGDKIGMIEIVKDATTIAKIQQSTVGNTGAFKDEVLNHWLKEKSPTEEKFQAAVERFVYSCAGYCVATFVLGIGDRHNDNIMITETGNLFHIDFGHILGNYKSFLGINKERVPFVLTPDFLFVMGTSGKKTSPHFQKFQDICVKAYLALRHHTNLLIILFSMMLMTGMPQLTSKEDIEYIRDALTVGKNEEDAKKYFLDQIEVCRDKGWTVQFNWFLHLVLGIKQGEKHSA
Protocol: as §1

PRKCE (PKC epsilon) = PRKCE (PKC epsilon) (Homo sapiens, UniProt Q02156)
Protocol: as §1

PRKCQ (PKC theta) = PRKCQ (PKC theta) (Homo sapiens, UniProt Q04759)
Protocol: as §1

PTK6 (Brk) = PTK6 (Brk) (Homo sapiens, UniProt Q13882)
Protocol: as §1

RAF1 (cRAF) Y340D Y341D = RAF1 (cRAF) Y340D Y341D (Homo sapiens, UniProt P04049, Y340D/Y341D)
Protocol: as §1

ROS1 = ROS1 (Homo sapiens, UniProt P08922)
Protocol: as §1

STK4 (MST1) = STK4 (MST1) (Homo sapiens, UniProt Q13043)
Protocol: as §1

YES1 = YES1 (Homo sapiens, UniProt P07947)
Sequence of YES1 (P07947 whole entry): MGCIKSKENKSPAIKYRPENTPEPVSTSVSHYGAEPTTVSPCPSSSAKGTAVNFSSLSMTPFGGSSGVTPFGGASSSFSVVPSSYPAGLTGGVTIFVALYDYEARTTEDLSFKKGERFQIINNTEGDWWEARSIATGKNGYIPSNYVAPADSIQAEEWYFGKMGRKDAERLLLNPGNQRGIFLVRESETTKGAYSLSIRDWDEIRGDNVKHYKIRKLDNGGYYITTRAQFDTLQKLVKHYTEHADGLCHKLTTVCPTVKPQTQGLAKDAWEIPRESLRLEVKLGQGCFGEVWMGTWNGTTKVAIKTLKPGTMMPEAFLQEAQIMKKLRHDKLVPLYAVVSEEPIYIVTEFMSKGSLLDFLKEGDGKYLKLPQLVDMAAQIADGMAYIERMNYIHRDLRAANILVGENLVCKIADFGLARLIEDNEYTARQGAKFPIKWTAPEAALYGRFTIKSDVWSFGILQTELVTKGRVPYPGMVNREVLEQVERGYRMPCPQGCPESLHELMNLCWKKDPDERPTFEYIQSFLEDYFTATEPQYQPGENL
Protocol: as §1

Sequence of ALK (Q9UM73 whole entry): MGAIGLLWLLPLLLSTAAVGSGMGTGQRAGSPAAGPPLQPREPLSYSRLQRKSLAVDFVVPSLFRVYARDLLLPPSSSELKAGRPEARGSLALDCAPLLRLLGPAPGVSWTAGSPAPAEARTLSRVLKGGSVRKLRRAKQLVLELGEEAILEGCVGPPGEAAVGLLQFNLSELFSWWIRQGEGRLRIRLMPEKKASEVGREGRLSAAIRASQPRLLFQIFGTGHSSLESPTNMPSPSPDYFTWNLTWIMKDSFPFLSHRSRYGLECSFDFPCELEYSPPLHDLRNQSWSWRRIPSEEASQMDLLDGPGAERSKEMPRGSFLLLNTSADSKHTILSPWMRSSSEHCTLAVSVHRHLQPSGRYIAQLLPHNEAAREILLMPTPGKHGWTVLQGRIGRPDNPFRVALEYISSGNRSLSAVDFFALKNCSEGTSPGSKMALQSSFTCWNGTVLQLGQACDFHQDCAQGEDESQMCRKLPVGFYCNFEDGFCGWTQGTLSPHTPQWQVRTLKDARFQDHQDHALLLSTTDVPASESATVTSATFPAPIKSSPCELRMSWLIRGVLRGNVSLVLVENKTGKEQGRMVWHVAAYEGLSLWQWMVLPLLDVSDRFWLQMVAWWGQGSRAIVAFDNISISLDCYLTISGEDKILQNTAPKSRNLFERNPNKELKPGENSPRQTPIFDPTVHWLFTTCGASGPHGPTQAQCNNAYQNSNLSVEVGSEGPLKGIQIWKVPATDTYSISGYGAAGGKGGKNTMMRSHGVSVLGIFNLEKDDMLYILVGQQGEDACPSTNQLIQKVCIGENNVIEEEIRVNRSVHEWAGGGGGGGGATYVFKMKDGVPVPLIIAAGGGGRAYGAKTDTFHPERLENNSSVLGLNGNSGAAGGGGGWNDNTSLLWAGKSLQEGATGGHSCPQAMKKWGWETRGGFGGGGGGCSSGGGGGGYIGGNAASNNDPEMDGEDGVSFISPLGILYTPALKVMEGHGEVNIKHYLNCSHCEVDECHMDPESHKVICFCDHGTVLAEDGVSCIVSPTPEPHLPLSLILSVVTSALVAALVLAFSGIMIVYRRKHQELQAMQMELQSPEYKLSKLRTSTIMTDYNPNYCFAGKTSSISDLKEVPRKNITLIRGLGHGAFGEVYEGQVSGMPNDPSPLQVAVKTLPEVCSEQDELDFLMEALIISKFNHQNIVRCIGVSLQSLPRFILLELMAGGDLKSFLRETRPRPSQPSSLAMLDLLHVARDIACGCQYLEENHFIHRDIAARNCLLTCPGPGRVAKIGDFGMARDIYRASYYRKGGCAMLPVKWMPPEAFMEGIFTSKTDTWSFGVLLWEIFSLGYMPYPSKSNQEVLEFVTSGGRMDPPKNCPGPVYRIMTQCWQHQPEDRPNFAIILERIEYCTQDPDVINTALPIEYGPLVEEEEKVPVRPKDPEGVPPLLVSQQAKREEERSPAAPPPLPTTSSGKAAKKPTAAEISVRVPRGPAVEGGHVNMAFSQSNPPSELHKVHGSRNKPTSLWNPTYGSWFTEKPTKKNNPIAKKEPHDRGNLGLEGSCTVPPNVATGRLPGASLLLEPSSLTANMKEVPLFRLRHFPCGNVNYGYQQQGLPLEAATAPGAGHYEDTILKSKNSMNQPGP

Structure (SMILES): C=CCNc1ncnc2ccc(Br)cc12 [SMER28]
- inhibition at 10 µM (ALK): 25%
- inhibition at 10 µM (AMPK A2/B1/G1): 12%
- inhibition at 10 µM (AURKB (Aurora B)): 18%
- inhibition at 10 µM (BMX): 11%
- inhibition at 10 µM (CDK7/cyclin H/MNAT1): 34%
- inhibition at 10 µM (CSF1R (FMS)): 39%
- inhibition at 10 µM (DMPK): 57%
- inhibition at 10 µM (EEF2K): 2%
- inhibition at 10 µM (EPHB4): -1%
- inhibition at 10 µM (FGFR2): 19%
- inhibition at 10 µM (FLT3): 40%
- inhibition at 10 µM (JAK1): -13%
- inhibition at 10 µM (KDR (VEGFR2)): 13%
- inhibition at 10 µM (MAP2K1 (MEK1)): 3%
- inhibition at 10 µM (MET (cMet)): 8%
- inhibition at 10 µM (PAK4): 0%
- inhibition at 10 µM [1]: 78%
- inhibition at 10 µM (PIK3CG (p110 gamma)): 65%
- inhibition at 10 µM (PRKCE (PKC epsilon)): 18%
- inhibition at 10 µM (PRKCQ (PKC theta)): 0%
- inhibition at 10 µM (PTK6 (Brk)): 0%
- inhibition at 10 µM (RAF1 (cRAF) Y340D Y341D): 13%
- inhibition at 10 µM (ROS1): 26%
- inhibition at 10 µM (STK4 (MST1)): 11%
- inhibition at 10 µM (YES1): 13%
